Experimental data: patent US20180355359A1, “METHODS FOR DETERMINING RESISTANCE TO ANTICANCER THERAPY AND COMPOSITION USED THEREFOR” (SD GENOMICS CO., LTD., priority 2015, published 2018)

Columns and labels:
[1] = system: K562; assay: Survival rate (CCK-8 assay) of CML cell line K562; type: cell-based; settings: imatinib 0.6 μM
Method: (§1) CML cell lines (K562 and CML-T1 cell line) and a normal lymphoblastoid cell line (LCL) were inoculated into a 96-well plate in which DMEM medium containing 10% FBS, 100 units/mL penicillin, and […] streptomycin at a concentration of 3×10^3 cells/well and cultured under the conditions of 37° C. and 5% CO2.
(§2) In particular, the siRNAs used had the nucleotide sequences of SEQ ID NOS: 5 and 176 to 178.

[2] = system: CML-T1 cell line; assay: Survival rate (CCK-8 assay) of CML cell line CML-T1; type: cell-based; settings: imatinib 0.6 μM
Method: as §1, §2

[3] = system: K562 cell line which induced the T315I mutation; assay: Survival rate (CCK-8 assay) of cell line with induced T315I somatic mutation; type: cell-based
Method: A cell line in which a somatic mutation of T315I was induced was prepared using the Clontech Guide-it CRISPR/Cas9 System and inoculated into a 96-well plate in which DMEM medium containing 10% FBS, 100 units/mL penicillin, and 100 μg/mL streptomycin at a concentration of 3×10^3 cells/well and cultured under the conditions of 37° C. and 5% CO2.

[4] = system: normal lymphoblastoid cell line (LCL); assay: Survival rate (CCK-8 assay) of normal lymphoblastoid cell line; type: cell-based
Method: as §1, §2

[5] = system: phospho CrkL/CrkL ratio; assay: Phospho-CRKL analysis (Phospho-CrkL (Tyr207) colorimetric cell-based ELISA) in K562
Method: A ratio of phosphorylated CRKL and CRKL (phospho CrkL/CrkL ratio) of the treated cell line was calculated using the Phospho-CrkL (Tyr207) Colorimetric Cell-Based enzyme linked immunosorbent assay (ELISA) kit and the results were compared (FIG. 10).

[6] = system: K562 cells; assay: Cell cycle analysis (PI staining, FACS) in K562 cells; type: cell-based; settings: vs negative control siRNA
Method: (§3) CML cell lines (K562 cells and LAMA-84 cells) were treated with the two kinds of siRNAs having the nucleotide sequences of SEQ ID NOS: 5 and 176 to 178 (negative control siRNA or IS3 siRNA) and the cells were immobilized. These cells were subjected to PI staining and applied to FACSVerse (BD Biosciences, Franklin Lakes, N.J., U.S.A.) so as to measure the percentage of the cells located in the G0/G1 phase (FIGS. 11A and 11B).

[7] = system: LAMA-84 cells; assay: Cell cycle analysis (PI staining, FACS) in LAMA-84 cells; type: cell-based; settings: vs negative control siRNA
Method: as §3

[8] = system: cancer cell lines of hematopoietic tissue or lymphatic tissue (LAMA84, KG-1, HL-60, NB-4, MOLM13, CCRF-CEM, U-937); assay: Survival rate (CCK-8 assay) of cancer cell lines of hematopoietic or lymphatic tissue; type: cell-based; settings: 100 pmol siRNA per 200,000 cells, up to 72 hours; vs siCTRL; all 7 hematopoietic/lymphatic lines
Text: (§4) Specifically, the cancer cell lines of hematopoietic tissue or lymphatic tissue (e.g., LAMA84 (chronic myeloid leukemia in blast crisis), KG-1 (acute myeloid leukemia, FAB M2), HL-60 (acute myeloid leukemia, FAB M2), NB-4 (acute promyelocytic leukemia), MOLM13 (acute myeloid leukemia, FAB M5B), CCRF-CEM (T acute lymphoblastic leukemia), and U-937 (histiocytic lymphoma)); solid cancer cell lines (e.g., IMR-32 (neuroblastoma, KCLB, 10127), SNU-478 (ampulla of vater adenocarcinoma), MG-63 (osteosarcoma), Hs578T (breast invasive ductal carcinoma, KCLB, 30126), U-87MG (glioblastoma), SNU-886 (hepatocellular carcinoma), MIA-PaCa-2 (pancreatic ductal adenocarcinoma), SK-MEL-2 (malignant melanoma), RD (embryonal rhabdomyosarcoma), Hs 746T (gastric adenocarcinoma), and J-82 (bladder carcinoma)) were dispensed into a 96-well plate at a concentration of 3,000 to 5,000 cell lines/well and incubated in a wet incubator (37° C. and 5% CO2) having an environment similar to that of the human body and cultured for 3 days.
(§5) Each of the cultured cells was treated with the two kinds of siRNAs having the nucleotide sequences of SEQ ID NOS: 5 and 176 to 178 (negative control siRNA (siCTRL) or IS3 siRNA) at a concentration of 100 pmol based on 200,000 cells, cultured for up to 72 hours, and the survival rates of these cells were compared by the CCK-8 assay (FIGS. 12A to 12C).

[9] = system: solid cancer cell lines (IMR-32, SNU-478, MG-63, Hs578T, U-87MG, SNU-886, MIA-PaCa-2, SK-MEL-2, RD, Hs 746T, J-82); assay: Survival rate (CCK-8 assay) of solid cancer cell lines; type: cell-based; settings: 100 pmol siRNA per 200,000 cells, up to 72 hours; vs siCTRL; all 11 solid cancer lines
Text: as §4, §5

Compound: Cc1ccc(NC(=O)c2ccc(CN3CCN(C)CC3)cc2)cc1Nc1nccc(-c2cccnc2)n1 [imatinib, reference compound]
- survival rate of the cell line [1]: reduced
- survival rate of the cell line [2]: reduced

Compound: HMGCLL1 IS3 siRNA: siRNA to HMGCLL1 isoform 3: sense GGUACCACAGGUUGCUGCU (SEQ ID NO: 178), antisense AGCAGCAACCUGUGGUACC (SEQ ID NO: 5) (listed as RNA, chemistry not given here)
- survival rate of the cell line ([3]; siRNA in combination with first generation anticancer agent (imatinib 10 nM)): further significantly reduced
- survival rate of the cell line ([3]; siRNA in combination with second generation anticancer agent (nilotinib or dasatinib 10 nM)): further significantly reduced
- survival rate of the cell line ([3]; siRNA used alone): reduced
- survival rate of the cell line [1]: reduced
- survival rate of the cell line [2]: reduced
- survival rate of the cell line [4]: not affected
- phospho CrkL/CrkL ratio ([5]; HMGCLL1 IS3 siRNA and imatinib in combination): reduced to the lowest level
- phospho CrkL/CrkL ratio ([5]; treated individually): reduced to similar levels
- percentage of the cells located in the G0/G1 phase [6]: increased
- percentage of the cells located in the G0/G1 phase [7]: increased
- survival rate of each cell line [8]: significantly reduced
- survival rate of each cell line [9]: significantly reduced
